Holding throughout (assay): Kinase panel profiling at 1 µmol/L (MSA or IMAP), percentage inhibition
Type in all cases: biochemical

Assay [1] deals with T1, panel of 255 wild-type kinases (Homo sapiens, UniProt P29323).
T1 sequence (P29323 19-1055): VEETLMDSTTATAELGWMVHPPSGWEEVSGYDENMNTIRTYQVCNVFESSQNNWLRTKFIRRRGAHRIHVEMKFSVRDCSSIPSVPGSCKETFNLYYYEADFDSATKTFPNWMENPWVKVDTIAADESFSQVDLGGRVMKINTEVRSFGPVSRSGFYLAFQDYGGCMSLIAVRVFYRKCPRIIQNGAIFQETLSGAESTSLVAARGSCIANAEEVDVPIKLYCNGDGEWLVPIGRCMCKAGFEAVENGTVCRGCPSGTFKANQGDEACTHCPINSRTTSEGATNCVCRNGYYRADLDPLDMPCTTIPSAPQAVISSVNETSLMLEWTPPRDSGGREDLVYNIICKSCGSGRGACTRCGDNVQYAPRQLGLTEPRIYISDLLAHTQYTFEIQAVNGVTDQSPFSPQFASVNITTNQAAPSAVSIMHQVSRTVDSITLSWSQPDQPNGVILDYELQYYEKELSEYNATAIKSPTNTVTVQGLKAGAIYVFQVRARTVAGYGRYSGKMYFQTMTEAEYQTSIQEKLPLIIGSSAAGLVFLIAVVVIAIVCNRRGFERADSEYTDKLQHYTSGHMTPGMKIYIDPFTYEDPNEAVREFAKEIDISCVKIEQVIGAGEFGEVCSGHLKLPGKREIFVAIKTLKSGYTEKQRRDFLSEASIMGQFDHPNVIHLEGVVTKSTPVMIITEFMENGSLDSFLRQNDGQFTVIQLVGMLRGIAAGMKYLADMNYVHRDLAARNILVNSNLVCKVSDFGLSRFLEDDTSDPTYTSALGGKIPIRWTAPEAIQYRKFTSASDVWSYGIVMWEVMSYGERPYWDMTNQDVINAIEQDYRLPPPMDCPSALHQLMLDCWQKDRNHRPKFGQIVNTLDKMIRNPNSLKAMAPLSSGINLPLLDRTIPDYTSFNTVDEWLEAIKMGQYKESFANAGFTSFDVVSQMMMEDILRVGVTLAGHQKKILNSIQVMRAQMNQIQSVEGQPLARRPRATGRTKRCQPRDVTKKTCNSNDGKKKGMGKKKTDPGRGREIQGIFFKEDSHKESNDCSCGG
Particulars: kinase EPHB2; 1 µmol/L single concentration; read-out: %-inhibition at 1 µmol/L, EPHB2.

Assay [2] addresses panel of 255 wild-type kinases (Homo sapiens, UniProt P42684). Particulars: ARG kinase assay; 1 µmol/L single concentration; read-out: %-inhibition ARG.
Assay [3] addresses T2, panel of 255 wild-type kinases (Homo sapiens, UniProt P43403).
T2 sequence (P43403 1-619): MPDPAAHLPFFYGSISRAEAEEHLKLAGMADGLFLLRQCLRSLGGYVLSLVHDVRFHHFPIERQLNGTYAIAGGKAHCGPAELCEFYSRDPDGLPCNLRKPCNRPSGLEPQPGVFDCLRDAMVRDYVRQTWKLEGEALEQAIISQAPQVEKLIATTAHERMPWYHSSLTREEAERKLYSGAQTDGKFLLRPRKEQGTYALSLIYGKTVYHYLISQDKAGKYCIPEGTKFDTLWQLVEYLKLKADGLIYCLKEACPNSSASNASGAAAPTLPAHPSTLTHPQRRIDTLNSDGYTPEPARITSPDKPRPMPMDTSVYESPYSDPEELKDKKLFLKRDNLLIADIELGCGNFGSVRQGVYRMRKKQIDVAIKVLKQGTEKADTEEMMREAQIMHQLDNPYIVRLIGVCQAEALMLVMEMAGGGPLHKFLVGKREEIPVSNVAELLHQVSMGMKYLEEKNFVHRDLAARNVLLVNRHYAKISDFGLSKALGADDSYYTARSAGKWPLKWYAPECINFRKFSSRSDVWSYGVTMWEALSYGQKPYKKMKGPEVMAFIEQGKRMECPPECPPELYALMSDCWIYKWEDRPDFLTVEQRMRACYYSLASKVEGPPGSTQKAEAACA
The settings on record: kinase ZAP70; 1 µmol/L single concentration; read-out: %-inhibition at 1 µmol/L, ZAP70.

Assay [4] deals with panel of 255 wild-type kinases (Homo sapiens, UniProt P51451). The settings on record: BLK kinase assay, 1 µmol/L single concentration; for inhibition at 1 µM: read-out: %-inhibition BLK.
In assay [5] the target is panel of 255 wild-type kinases (Homo sapiens, UniProt P54764). The settings on record: kinase EPHA4; 1 µmol/L single concentration; read-out: %-inhibition at 1 µmol/L, EPHA4.
The target in assay [6] is T3, panel of 255 wild-type kinases (Homo sapiens, UniProt Q13976).
T3 sequence (Q13976 1-671): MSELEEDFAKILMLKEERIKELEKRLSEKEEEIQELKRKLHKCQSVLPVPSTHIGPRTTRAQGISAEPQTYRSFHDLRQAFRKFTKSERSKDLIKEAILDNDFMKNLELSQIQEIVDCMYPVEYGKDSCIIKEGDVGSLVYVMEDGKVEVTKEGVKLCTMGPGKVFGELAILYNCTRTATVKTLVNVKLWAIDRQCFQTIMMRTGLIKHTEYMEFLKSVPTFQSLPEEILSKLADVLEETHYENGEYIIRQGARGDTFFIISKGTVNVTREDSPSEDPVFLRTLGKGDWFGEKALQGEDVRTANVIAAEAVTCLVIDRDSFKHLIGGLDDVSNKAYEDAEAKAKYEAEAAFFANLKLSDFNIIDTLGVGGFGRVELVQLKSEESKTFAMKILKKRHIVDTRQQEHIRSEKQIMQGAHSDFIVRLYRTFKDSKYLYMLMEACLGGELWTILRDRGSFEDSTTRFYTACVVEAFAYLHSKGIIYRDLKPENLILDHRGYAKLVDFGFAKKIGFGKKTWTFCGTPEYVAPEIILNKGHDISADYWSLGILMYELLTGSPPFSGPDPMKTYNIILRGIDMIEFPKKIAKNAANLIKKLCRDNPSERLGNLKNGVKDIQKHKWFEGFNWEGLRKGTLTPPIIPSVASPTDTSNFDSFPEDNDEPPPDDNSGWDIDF
Particulars: kinase PGK; 1 µmol/L single concentration; read-out: %-inhibition at 1 µmol/L, PGK.

For assay [7], the target named is panel of 255 wild-type kinases (Homo sapiens, UniProt Q9HCP0). The settings on record: kinase CK1γ1; 1 µmol/L single concentration; read-out: %-inhibition at 1 µmol/L, CK1γ1.

The values that follow come from publication PMC9516332 (Frontiers in Oncology, 2022).

For `FC(F)(F)c1ccc(CNc2ccc(Cc3c[nH]c4ncc(Cl)cc34)cn2)cn1` [pexidartinib], the inhibition at 1 µM in assay [1] was 8%; in assay [2], 7%; in assay [3], -7%; in assay [4], 18%; in assay [5], 1.65%; in assay [6] it was 14%. In addition, the inhibition at 1 µM in assay [7] came to 10%.
With `CO[C@]1(C(=O)N[C@@H](C)c2ccc(-n3cc(F)cn3)nc2)CC[C@H](c2nc(C)cc(Nc3cc(C)[nH]n3)n2)CC1` [pralsetinib], the inhibition at 1 µM in assay [1] was 35%; in assay [2], 38%; in assay [3] it was 9%; in assay [4] it was 84%; in assay [5], 52%; in assay [6], 13%. The inhibition at 1 µM in assay [7] is 1.83%.
For the compound `CCn1c(=O)c(-c2cc(NC(=O)Nc3ccccc3)c(F)cc2Br)cc2cnc(NC)cc21` [ripretinib], the inhibition at 1 µM is 75% in assay [1]; 56% in assay [2]; -8% in assay [3]; 26% in assay [4]; 101% in assay [5]; -0.449% in assay [6]. Further, the inhibition at 1 µM in assay [7] is -0.282%.
For the compound `COc1ccc(CN2C3CC2CN(c2ccc(-c4cc(OCC(C)(C)O)cn5ncc(C#N)c45)cn2)C3)cn1` [selpercatinib], the inhibition at 1 µM amounted to 64% in assay [1]; 10% in assay [2]; 8% in assay [3]; 76% in assay [4]; 58% in assay [5]; 0.302% in assay [6]. For the same compound, the inhibition at 1 µM in assay [7] is 12%.
Consider `Cn1cnc2c(F)c(Nc3ccc(Br)cc3Cl)c(C(=O)NOCCO)cc21` [selumetinib], for which the inhibition at 1 µM in assay [1] is -0.445%; in assay [2], 1.6%; in assay [3], -1.11%; in assay [4], -6%; in assay [5], -2.57%; in assay [6] it was -2%. Besides, the inhibition at 1 µM in assay [7] is -2.69%.
In the case of `Cc1cc(Nc2ncnc3ccc(NC4=NC(C)(C)CO4)cc23)ccc1Oc1ccn2ncnc2c1` [tucatinib], the inhibition at 1 µM is 2.14% in assay [1]; 3.73% in assay [2]; 3.36% in assay [3]; 2.27% in assay [4]; -2.34% in assay [5]; 0.26% in assay [6]. For the same compound, in assay [7], the inhibition at 1 µM came out at 11%.
Take `C=CC(=O)N1CCC([C@@H]2CCNc3c(C(N)=O)c(-c4ccc(Oc5ccccc5)cc4)nn32)CC1` [zanubrutinib]: the inhibition at 1 µM in assay [1] is -1.07%; in assay [2] it was -3.68%; in assay [3], 2%; in assay [5] it was -0.204%; in assay [6] it was -2.64%; in assay [7], -3.73%. Moreover, the “%-inhibition BLK” value in assay [4] was 98%.
